Results taken from patent US20170066797A1, “WITHAFERIN A ANALOGS AND USES THEREOF” (Whitehead Institute for Biomedical Research, priority 2008, published 2017).

Legend:
Hsp72, Hsp27 = test: Heat-shock protein induction in organs after IP administration; format: in vivo, mice; details: IP 18 mg/kg/day, 16 hours after last injection, FIG. 10
Protocol: FIG. 10. Heat-shock protein induction following Withaferin A (WA) administration to mice. WA was formulated in DMSO/Cremophor/Saline vehicle and injected intraperitoneally (IP) at a total dose of 18 mg/kg/day, either as a single injection (WA ×1) or divided in two 9 mg/kg injections (WA ×2) spaced 6 hrs apart. Control animals received an equal volume of vehicle alone as a single injection. Mice were sacrificed 16 hours after the last injection, organs harvested and protein lysates prepared for immunoblotting. Equal loading of samples was confirmed by staining membranes for total protein (left panels). The relative tissue levels of Hsp72, Hsp27 and Annexin 2 (a putative target of Withaferin A) were determined by probing with specific antibodies as indicated. Note the robust induction of heat shock protein levels in spleen (Annexin 2 positive), but not normal brain (Annexin 2 negative) associated with prior Withaferin A exposure.

[1] = test system: primary astrocytes / primary neurons co-culture; test: Glutathione depletion astrocyte-neuron co-culture model (HCA, MAP-2 readout); format: cell-based, rat; details: astrocytes pre-treated 24 h, then 5 mM homocysteic acid 48 h, FIG. 14
Protocol: FIGS. 14A and 14B. (A) Withaferin A (WA) mediates astrocyte-dependent neuronal protection. Primary astrocytes cultured from the cerebral cortices of postnatal rat pups, were treated with WA for 24 h, and were washed with serum-containing media to completely remove WA from the culture media. […] 48 h later neuronal viability was assessed by quantifying the neuronal marker MAP-2. (B) WA-mediated neuroprotection from oxidative stress.
WA was tested in a second model for neuroprotection that utilizes primary astrocytes cultured from the cerebral cortices of postnatal day 1-3 rat pups. In the CNS, astrocytes play a pivotal role in protecting neurons from oxidative stress, a hallmark of nearly all neurodegenerative diseases and disorders. […]
In this assay, which is summarized in FIG. 13, primary astrocytes were isolated from the cerebral cortices of postnatal day 1-3 rat pups, allowed to grow to confluency for ˜2 weeks, and then treated with test compound for 24 h. […] Quantification of the neuron-specific protein microtubule-associated protein-2 (MAP-2) is used to monitor neuronal specific death in this astrocyte-neuron co-culture model as described previously (Carrier et al., J. Neuroscience Methods, 154: 239-244.2006). […] HRP activity is then measured using a reaction buffer containing 150 uM amplex red (Molecular Probes) and 800 uM hydrogen peroxide (Sigma). […]

CC1=C(CO)C(=O)OC([C@@H](C)C2CCC3C4C[C@H]5O[C@]56[C@@H](O)C=CC(=O)[C@]6(C)C4CC[C@@]32C)C1 (stereo partly drawn) [Withaferin A]
heat shock response induction in brain (Hsp72, Hsp27; annexin II absent): not in brain cells | heat shock response induction in spleen (Hsp72, Hsp27; annexin II present): induces the heat shock response in spleen cells | astrocyte-dependent protection of neurons from oxidative stress (MAP-2) [1]: enhance the protection of neurons exposed to oxidative stress
